How the values were obtained:
human Nav1.7 = human Nav1.7 (Homo sapiens (Human), UniProt Q15858); experiment: FLIPR or FLIPR TETRA sodium dye assay with KCl and test article pre-incubation; format: cell-based; conditions: sodium dye assay with KCl; recombinant human Nav1.7 in HEK293 cells; value ± SEM
Description: For dominant selection of the Nav1.7-expressing clones, the expression plasmid co-expressed the neomycin resistance gene. […] Recombinant beta and gamma subunits were not introduced into this cell line. Additional cell lines expressing recombinant Nav1.7 cloned from other species can also be used, alone or in combination with various beta subunits, gamma subunits or chaperones.
Cell maintenance: Unless otherwise noted, cell culture reagents were purchased from Mediatech of Herndon, Va. The recombinant Nav1.7/HEK293 cells were routinely cultured in growth medium consisting of Dulbecco's […] containing 10% fetal bovine serum (FBS, Hyclone, Thermo Fisher Scientific, Logan, Utah), 100 U/mL penicillin, […], 2-4 mM L-glutamine, and […]. For natural, non-recombinant cell lines, the selective antibiotic was omitted, and additional media formulations can be applied as needed.
The intensity of this emission, but not the wavelength range, is increased when the dye is exposed to Na^+ ions, which it can bind with partial selectivity. Cells expressing Nav1.7 or other sodium channels were loaded with the CoroNa™ Green dye immediately in advance of the fluorescence assay, and then, after agonist stimulation, the mobilization of Na^+ ions was detected as the Na^+ ions flowed from the extracellular fluid into the cytoplasm through the activated sodium channel pores. The dye was stored in the dark as a lyophilized powder, and then an aliquot was dissolved immediately before the cell loading procedure, according to the instructions of the manufacturer to a stock concentration of 10 mM in DMSO. It was then diluted in the assay buffer to a 4× concentrated working solution, so that the final concentration of dye in the cell loading buffer was 5 μM.
These scorpion toxins inhibit the fast inactivation of their cognate target channels. Stock solutions of the agonists were prepared to 40 mM in DMSO (veratridine) and 1 mg/mL in dH2O (scorpion venom), and then diluted to make a 4× or 2× stock (depending on the particular assay) in assay buffer, the final concentration being 100 μM (veratridine) and 10 μg/mL (scorpion venom). Both of the agonists were purchased from Sigma Aldrich, St. Louis, Mo.
Test Compounds: Test compounds were dissolved in DMSO to yield 10 mM stock solutions. […] If a particular test article appeared to be especially potent, then the concentration curve was adjusted, e.g., to 10-fold lower concentrations, in order to perform the dose-response in a more relevant concentration range. Compound dilutions were added during the dye-loading and pre-stimulation step, and then again during the fluorescence assay, early in the kinetic read.
Data Analysis: The data were analyzed according to methods known to those skilled in the art or using the GraphPad® Prism 4.0 Program (available from GraphPad Software, San Diego, Calif.) to determine the IC50 value for the test article. At least one standard reference compound was evaluated during each experiment.
FLIPR® or FLIPR^TETRA® sodium dye assay with KCl and test article pre-incubation: Cells were prepared by plating the recombinant HEK293 cells or other host cells expressing either recombinant or non-recombinant, native, Nav1.7 alpha subunit, alone or in combination with various beta and gamma subunits at a density of ˜40,000 cells/well into a 96-well black, clear-bottom, PDL-coated plate. The assay can be adapted to 384-well or 1,536-well format, if desired, using proportionately less cells and media. […] For counter-screens of other voltage-gated sodium channels, the procedure was very similar, though optimal densities of cells, media and subsequent assay components can be fine-tuned for the particular cell line or isoform.

[1] = test system: spinal nerve ligation (SNL; Chung model of neuropathic pain); experiment: Mechanical hyperalgesia (paw withdrawal threshold) in the Chung spinal nerve ligation model; format: in vivo; conditions: rats, intraperitoneal (i.p.) administration, from 1 to 3 hours
Protocol: Test Animals: Each experiment uses rats weighing between 200-260 g at the start of the experiment. The rats are group-housed and have free access to food and water at all times, except prior to oral administration of a test compound when food is removed for 16 hours before dosing. A control group acts as a comparison to rats treated with a compound of Formulae I-XX. The control group is administered the carrier as used for the test compound. The volume of carrier administered to the control group is the same as the volume of carrier and test compound administered to the test group.
In the Chung model, the spinal nerve ligation model of neuropathic pain was used to produce mechanical hyperalgesia, thermal hyperalgesia and tactile allodynia in rats. […] The animals were assessed for response to noxious mechanical stimuli by determining PWT, as described below, prior to surgery (baseline), then immediately prior to and 1, 3, and 5 hours after being administered a compound of Formulae I-XX for the left rear paw of the animal. The animals can also be assessed for response to noxious thermal stimuli or for tactile allodynia, as described below. […]
Mechanical Hyperalgesia: Sensitivity to noxious mechanical stimuli can be measured in animals using the paw pressure test to assess mechanical hyperalgesia. […] PWT is determined once for each rat at each time point. […]

hNav1.7 = hNav1.7 (Homo sapiens (Human), UniProt Q15858); experiment: Electrophysiology (EP) assay, whole-cell patch clamp; format: cell-based; conditions: whole-cell patch clamp, hNav1.7 expressing HEK-293 cells; read-out: EP Nav1.7 Ki
Protocol: Cells: The hNav1.7 expressing HEK-293 cells were plated on 35 mm culture dishes pre-coated with poly-D-lysine in standard DMEM culture media (Mediatech, Inc., Herndon, Va.) and incubated in a 5% CO2 incubator at 37° C. Cultured cells were used approximately 12-48 hours after plating.
Electrophysiology: On the day of experimentation, the 35 mm dish was placed on the stage of an inverted microscope equipped with a perfusion system that continuously perfuses the culture dish with fresh recording media. A gravity driven superfusion system was used to apply test solutions directly to the cell under evaluation. This system consists of an array of glass pipette glass connected to a motorized horizontal translator. The outlet of the shooter was positioned approximately 100 μm from the cell of interest.
Gigaseals were formed and the whole-cell configuration was established in voltage clamp mode, and membrane currents generated by hNav1.7 were recorded in gap-free mode. […] Signals were sampled at 50 kHz and low pass filtered at 3 kHz.
The voltage clamp protocol to examine hNav1.7 currents was as follows. First, the standard current-voltage relationship was tested by pulsing the cell from the holding voltage (Vh) of −120 mV by a series of 5 msec long square-shaped test pulses incrementing in +10 mV steps over the membrane voltage range of −90 mV to +60 mV at the pace of stimulation of 0.5 Hz. This procedure determines the voltage that elicits the maximal current (Vmax). […] This procedure determines the voltage of full inactivation (Vfull). Third, the cell was repeatedly stimulated with the following protocol, first in the absence of the test compound then in its presence. The protocol consisted of depolarizing the cell from the holding potential of −120 mV to the Vfull value for 4.5 seconds then repolarizing the cell to the holding potential for 10 ms before applying the test pulse to the Vmax for 5 ms. The amount of inhibition produced by the test compound was determined by comparing the current amplitude elicited by the test pulse in the absence and presence of the compound.
Vehicle solution used to establish base line was also contacting 0.3% DMSO.
Data analysis: Data was analyzed off-line using Clampfit software (pClamp, v. 8; Axon Instruments) and graphed using GraphPad Prizm (v. 4.0) software.

Chain of hNav1.7 (Q15858 other isoform, or with tags, fused parts or gaps): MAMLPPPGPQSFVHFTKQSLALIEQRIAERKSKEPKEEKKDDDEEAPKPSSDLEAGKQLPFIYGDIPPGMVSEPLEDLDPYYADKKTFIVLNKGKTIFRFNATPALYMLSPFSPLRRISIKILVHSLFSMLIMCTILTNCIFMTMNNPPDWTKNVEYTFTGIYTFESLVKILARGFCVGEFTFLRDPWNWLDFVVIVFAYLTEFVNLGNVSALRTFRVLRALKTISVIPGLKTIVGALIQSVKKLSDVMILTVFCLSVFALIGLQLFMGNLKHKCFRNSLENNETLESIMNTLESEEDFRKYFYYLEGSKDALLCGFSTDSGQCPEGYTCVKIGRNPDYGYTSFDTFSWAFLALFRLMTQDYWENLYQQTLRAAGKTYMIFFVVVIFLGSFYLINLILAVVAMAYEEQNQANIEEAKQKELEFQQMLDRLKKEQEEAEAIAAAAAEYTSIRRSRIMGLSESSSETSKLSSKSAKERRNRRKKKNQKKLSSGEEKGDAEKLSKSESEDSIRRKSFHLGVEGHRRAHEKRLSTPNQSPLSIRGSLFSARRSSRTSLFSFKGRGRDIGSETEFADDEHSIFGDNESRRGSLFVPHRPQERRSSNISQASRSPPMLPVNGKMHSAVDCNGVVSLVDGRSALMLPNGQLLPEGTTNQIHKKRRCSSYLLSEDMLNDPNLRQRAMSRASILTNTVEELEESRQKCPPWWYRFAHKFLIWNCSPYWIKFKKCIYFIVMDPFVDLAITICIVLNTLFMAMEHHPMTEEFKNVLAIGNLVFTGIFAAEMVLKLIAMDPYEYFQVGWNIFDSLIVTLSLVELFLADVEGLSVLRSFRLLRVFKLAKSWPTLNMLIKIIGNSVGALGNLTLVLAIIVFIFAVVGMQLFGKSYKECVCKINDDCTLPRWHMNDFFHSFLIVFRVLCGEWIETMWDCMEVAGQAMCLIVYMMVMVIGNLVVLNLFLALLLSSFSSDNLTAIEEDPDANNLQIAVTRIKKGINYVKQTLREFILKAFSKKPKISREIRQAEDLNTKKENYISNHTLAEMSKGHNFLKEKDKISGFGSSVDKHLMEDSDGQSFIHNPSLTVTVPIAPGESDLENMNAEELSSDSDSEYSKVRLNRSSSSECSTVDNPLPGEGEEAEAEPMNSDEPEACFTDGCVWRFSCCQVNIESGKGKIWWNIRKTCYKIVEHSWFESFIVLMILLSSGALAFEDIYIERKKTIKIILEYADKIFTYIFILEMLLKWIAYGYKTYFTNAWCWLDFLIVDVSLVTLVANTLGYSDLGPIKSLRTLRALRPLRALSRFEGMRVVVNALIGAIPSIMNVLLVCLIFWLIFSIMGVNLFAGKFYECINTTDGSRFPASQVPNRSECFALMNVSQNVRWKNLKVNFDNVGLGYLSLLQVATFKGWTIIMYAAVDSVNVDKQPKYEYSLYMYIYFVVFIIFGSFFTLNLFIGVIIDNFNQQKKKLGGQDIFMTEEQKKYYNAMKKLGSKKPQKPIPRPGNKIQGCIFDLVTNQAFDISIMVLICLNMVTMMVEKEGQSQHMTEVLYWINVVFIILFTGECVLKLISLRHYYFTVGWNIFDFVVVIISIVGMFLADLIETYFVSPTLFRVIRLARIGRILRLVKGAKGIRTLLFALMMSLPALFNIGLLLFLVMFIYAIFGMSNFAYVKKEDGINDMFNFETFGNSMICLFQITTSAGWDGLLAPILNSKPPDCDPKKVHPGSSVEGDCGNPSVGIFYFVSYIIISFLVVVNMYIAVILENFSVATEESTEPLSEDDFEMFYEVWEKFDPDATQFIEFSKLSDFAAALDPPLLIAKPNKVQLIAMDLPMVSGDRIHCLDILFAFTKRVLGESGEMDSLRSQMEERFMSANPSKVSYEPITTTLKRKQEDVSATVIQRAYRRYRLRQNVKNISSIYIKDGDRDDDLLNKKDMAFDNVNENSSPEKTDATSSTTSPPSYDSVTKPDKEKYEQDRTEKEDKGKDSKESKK
Chain of human Nav1.7 (Q15858 other isoform, or with tags, fused parts or gaps): as above

SMILES	IC50 (human Nav1.7)	reversal of mechanical hyperalgesia [1]	Ki (hNav1.7)
N#Cc1cc(Oc2ccc(-n3cc(C[C@H](N)CO)c4ccccc43)cc2)ccc1C(F)(F)F [Compound 47, (S)-5-{4-[3-(2-Amino-3-hydroxypropyl)-1H-indol-1-yl]phenoxy}-2-(trifluoromethyl)benzonitrile]	0.213 ± 0.052 µM	10%-25%	160 nM
N#Cc1cc(Oc2ccc(-n3cc(C(O)C(N)=O)c4ccccc43)cc2)ccc1C(F)(F)F (stereo not drawn) [Compound 60, 2-(1-(4-(3-Cyano-4-(trifluoromethyl)phenoxy)phenyl)-1H-indol-3-yl)-2-hydroxyacetamide]	0.224 ± 0.038 µM	10%-25%	400 nM

— patent US9212139B2, “Aryl substituted indoles and their use as blockers of sodium channels” (Purdue Pharma, L.P., priority 2010, dated 2015)
